Assay results taken from patent US20230116114A1, “COMPOUNDS AND COMPOSITIONS FOR TREATING CNS DISORDERS” (Blue Oak Pharmaceuticals, Inc., priority 2020, published 2023).
Where a name gives a salt, the structure may show the parent alone.

Test system: mice
Test: SmartCube in vivo neuropharmacological behavioral assay
Details: for minimal effective dose: Mus musculus, ip, 0.25 h, dose having 50% or more total activity in SmartCube, i.p., read-out: MED (minimal effective dose); for AD: antidepressant (percent probability) / AG: analgesic (percent probability) / AP: antipsychotic (percent probability) / AX: anxiolytic (percent probability) / CE: cognitive enhancer (percent probability) / HA: hallucinogenic (percent probability) / MS: mood stabilizer (percent probability) / PS (percent probability) / SD: sedative hypnotic (percent probability) / SE: side effects (percent probability) / UN: uncharacterized CNS activity (percent probability) / XG: anxiogenic (percent probability): SmartCube, i.p. 15 min before test, result at the MED
In short: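 Mice dosed i.p. in NMP (Pharmasolve) 15 min before automated video behavioral testing at several doses (e.g., 0.3-30 mpk). Signatures compared to reference drug classes giving per-class probabilities (0-100); MED is the lowest dose with ≥50% total activity.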

Row | SMILES | minimal effective dose | AD: antidepressant (percent probability) | AG: analgesic (percent probability) | AP: antipsychotic (percent probability) | AX: anxiolytic (percent probability) | CE: cognitive enhancer (percent probability) | HA: hallucinogenic (percent probability) | MS: mood stabilizer (percent probability) | PS (percent probability) | SD: sedative hypnotic (percent probability) | SE: side effects (percent probability) | UN: uncharacterized CNS activity (percent probability) | XG: anxiogenic (percent probability)
1 | CC(C1CC1)N1C2CCCC1c1ccccc12 (centres unmarked) [Compound 21, 12-(1-Cyclopropylethyl)-12-azatricyclo[6.3.1.0]dodeca-2,4,6-triene hydrochloride] | 0.1 to 1 mg/kg | +++ (25% ≤ X < 50%) | ++ (5% ≤ X < 25%) | + (LOQ ≤ X < 5%) | ++ (5% ≤ X < 25%) | + (LOQ ≤ X < 5%) | + (LOQ ≤ X < 5%) | + (LOQ ≤ X < 5%) | + (LOQ ≤ X < 5%) | + (LOQ ≤ X < 5%) | + (LOQ ≤ X < 5%) | + (LOQ ≤ X < 5%) | + (LOQ ≤ X < 5%)
2 | CC(C)C(C)N1C2CCCC1c1ccccc12 (centres unmarked) [Compound 22, 12-(3-Methylbutan-2-yl)-12-azatricyclo[6.3.1.0^2,7]dodeca-2,4,6-triene hydrochloride] | 1 to 10 mg/kg | ++ (5% ≤ X < 25%) | + (LOQ ≤ X < 5%) | + (LOQ ≤ X < 5%) | + (LOQ ≤ X < 5%) | + (LOQ ≤ X < 5%) | + (LOQ ≤ X < 5%) | + (LOQ ≤ X < 5%) | + (LOQ ≤ X < 5%) | + (LOQ ≤ X < 5%) | + (LOQ ≤ X < 5%) | ++++ (50% ≤ X < 100%) | + (LOQ ≤ X < 5%)
3 | CC[C@@H](C)N1C2CCCC1c1ccccc12 [Compound 25, 12-[(2R)-Butan-2-yl]-12-azatricyclo[6.3.1.0^2,7]dodeca-2,4,6-triene hydrochloride] | 1 to 10 mg/kg | ++++ (50% ≤ X < 100%) | + (LOQ ≤ X < 5%) | + (LOQ ≤ X < 5%) | + (LOQ ≤ X < 5%) | + (LOQ ≤ X < 5%) | + (LOQ ≤ X < 5%) | + (LOQ ≤ X < 5%) | ++ (5% ≤ X < 25%) | + (LOQ ≤ X < 5%) | + (LOQ ≤ X < 5%) | + (LOQ ≤ X < 5%) | + (LOQ ≤ X < 5%)
4 | CC[C@H](C)N1C2CCCC1c1ccccc12 [Compound 26, 12-[(2S)-Butan-2-yl]-12-azatricyclo[6.3.1.0^2,7]dodeca-2,4,6-triene hydrochloride] | 1 to 10 mg/kg | ++++ (50% ≤ X < 100%) | + (LOQ ≤ X < 5%) | + (LOQ ≤ X < 5%) | + (LOQ ≤ X < 5%) | + (LOQ ≤ X < 5%) | ++ (5% ≤ X < 25%) | + (LOQ ≤ X < 5%) | ++ (5% ≤ X < 25%) | + (LOQ ≤ X < 5%) | + (LOQ ≤ X < 5%) | + (LOQ ≤ X < 5%) | + (LOQ ≤ X < 5%)
5 | CC(C)N1C2CCC(O)C1c1ccccc12 (centres unmarked) [Compound 27, 12-(propan-2-yl)-12-azatricyclo[6.3.1.0^2,7]dodeca-2,4,6-trien-9-ol hydrochloride] | 10 to 30 mg/kg | +++ (25% ≤ X < 50%) | ++ (5% ≤ X < 25%) | + (LOQ ≤ X < 5%) | ++ (5% ≤ X < 25%) | + (LOQ ≤ X < 5%) | ++ (5% ≤ X < 25%) | + (LOQ ≤ X < 5%) | ++ (5% ≤ X < 25%) | + (LOQ ≤ X < 5%) | + (LOQ ≤ X < 5%) | + (LOQ ≤ X < 5%) | + (LOQ ≤ X < 5%)
6 | CC1CC2NC(C1)c1ccccc12 (centres unmarked) [Compound 29, 10-Methyl-12-azatricyclo[6.3.1.0^2,7]dodeca-2,4,6-triene hydrochloride] | 1 to 10 mg/kg | ++ (5% ≤ X < 25%) | ++ (5% ≤ X < 25%) | + (LOQ ≤ X < 5%) | +++ (25% ≤ X < 50%) | + (LOQ ≤ X < 5%) | + (LOQ ≤ X < 5%) | + (LOQ ≤ X < 5%) | + (LOQ ≤ X < 5%) | + (LOQ ≤ X < 5%) | + (LOQ ≤ X < 5%) | + (LOQ ≤ X < 5%) | + (LOQ ≤ X < 5%)
7 | FC1CCC2NC1c1ccccc12 (centres unmarked) [Compound 30, 9-Fluoro-12-azatricyclo[6.3.1.0^2,7]dodeca-2,4,6-triene hydrochloride] | > 30 mg/kg | + (LOQ ≤ X < 5%) | + (LOQ ≤ X < 5%) | + (LOQ ≤ X < 5%) | ++ (5% ≤ X < 25%) | + (LOQ ≤ X < 5%) | + (LOQ ≤ X < 5%) | + (LOQ ≤ X < 5%) | + (LOQ ≤ X < 5%) | + (LOQ ≤ X < 5%) | + (LOQ ≤ X < 5%) | + (LOQ ≤ X < 5%) | + (LOQ ≤ X < 5%)
8 | CC(C)N1[C@@H]2C[C@@H](C)C[C@H]1c1ccccc12 [Compound 31, 10-Methyl-12-(propan-2-yl)-12-azatricyclo[6.3.1.0^2,7]dodeca-2,4,6-triene hydrochloride] | 1 to 10 mg/kg | ++++ (50% ≤ X < 100%) | + (LOQ ≤ X < 5%) | + (LOQ ≤ X < 5%) | + (LOQ ≤ X < 5%) | + (LOQ ≤ X < 5%) | ++ (5% ≤ X < 25%) | + (LOQ ≤ X < 5%) | ++ (5% ≤ X < 25%) | + (LOQ ≤ X < 5%) | + (LOQ ≤ X < 5%) | + (LOQ ≤ X < 5%) | + (LOQ ≤ X < 5%)
9 | CC(C)N1C2CCC(F)C1c1ccccc12 (centres unmarked) [Compound 35, 9-Fluoro-12-(propan-2-yl)-12-azatricyclo[6.3.1.0^2,7]dodeca-2,4,6-triene hydrochloride] | > 30 mg/kg | + (LOQ ≤ X < 5%) | ++ (5% ≤ X < 25%) | + (LOQ ≤ X < 5%) | ++ (5% ≤ X < 25%) | + (LOQ ≤ X < 5%) | + (LOQ ≤ X < 5%) | + (LOQ ≤ X < 5%) | + (LOQ ≤ X < 5%) | + (LOQ ≤ X < 5%) | + (LOQ ≤ X < 5%) | + (LOQ ≤ X < 5%) | + (LOQ ≤ X < 5%)
10 | CC1CC2c3ccccc3C(C1)N2C1CCC1 (centres unmarked) [Compound 36, 12-Cyclobutyl-10-methyl-12-azatricyclo[6.3.1.0^2,7]dodeca-2,4,6-triene hydrochloride] | 1 to 10 mg/kg | ++++ (50% ≤ X < 100%) | + (LOQ ≤ X < 5%) | + (LOQ ≤ X < 5%) | + (LOQ ≤ X < 5%) | + (LOQ ≤ X < 5%) | ++ (5% ≤ X < 25%) | + (LOQ ≤ X < 5%) | + (LOQ ≤ X < 5%) | + (LOQ ≤ X < 5%) | + (LOQ ≤ X < 5%) | ++ (5% ≤ X < 25%) | + (LOQ ≤ X < 5%)
11 | CCC(C)N1C2CC(C)CC1c1ccccc12 (centres unmarked) [Compound 37, 12-(Butan-2-yl)-10-methyl-12-azatricyclo[6.3.1.0^2,7]dodeca-2,4,6-triene hydrochloride] | 1 to 10 mg/kg | ++ (5% ≤ X < 25%) | ++ (5% ≤ X < 25%) | + (LOQ ≤ X < 5%) | +++ (25% ≤ X < 50%) | + (LOQ ≤ X < 5%) | + (LOQ ≤ X < 5%) | + (LOQ ≤ X < 5%) | ++ (5% ≤ X < 25%) | + (LOQ ≤ X < 5%) | + (LOQ ≤ X < 5%) | + (LOQ ≤ X < 5%) | + (LOQ ≤ X < 5%)
